Data set [1] is described as follows: Stability of a suspension of iron oxide nanoparticles clusters encapsulated by a lipid (DOPC) versus a nucleolipid (DOTAU). The settings on record: Milli-Q water, sonicated 3×15 minutes. The method, then: 75 μL of stock solution of (DOPC) (Avanti Polar ipids, 50 mg/mL in chloroform) and 20 μL of stock solution of iron oxide nanoparticles (10 mg/mL in chloroform) were mixed. The organic phase was added dropwise into the aqueous phase (2 ml of Milli-Q Water) placed in glass tube under stirring by vortex. Then the mixture was placed in a glass flask. Chloroform was removed under vacuum and the resulting crude material solution was sonicated 3 times (3×15 minutes) to give a precipitate.
The same protocol was followed, except that the nucleolipid N-[5′-(2′,3′-dioleoyl)uridine]-N′,N′,N′-trimethylammonium (DOTAU) was used instead of DOPC.

Data set [2] concerns Platelet rich plasma (PRP). The data set can be described thus: In vitro platelet aggregation (light transmission aggregometer). Type of data set: cell-based, healthy volunteers. The settings on record: 37° C. The method, then: Blood was obtained in 1/10th volume of 3.8% sodium citrate from healthy volunteers who had not taken any drugs known to affect platelet function for 2 weeks prior to the study. Platelet rich plasma (PRP) was prepared by centrifugation at 20° C. for 10-15 min at 150-200 g and stored at room temperature.
Platelet-poor plasma (PPP) was prepared by further centrifugation of the remaining plasma at 2700 g for 15 min and was used to calibrate the 100% light transmission of the aggregometer.
The percentage of aggregation was followed versus time. PRP (207 μL) was stirred in cuvette at 37° C. and agonists adenosine 5′-diphosphate (ADP) or thrombin receptor-activating peptide -6 (TRAP-6) were added at 5 s to promote platelet aggregation, and was incubated either with the DOU-PEG2000-based nanocarrier composition containing iron oxide nanoparticles and prostacyclin (PGI2) of example 2, or with the iron oxide nanoparticles clusters encapsulated by diC16dT of preparation 2 (used as negative control) or with the agonist(s) only (negative control) or with the agonist(s) and PGI2 (positive control) for 15 min and 3 h for evaluating PGI2 activity. The in vitro platelet aggregation was determined using a four-channel light transmission aggregometer (APACT 4004, ELITech, France).
The results are shown on FIG. 12, where the curves numbered 1 to 7 represent the following experimental conditions: […]

Data set [3] can be described thus: Size distribution measured by Dynamic Light Scattering (DLS). Type of data set: physicochemical.

“Also recorded” adds a separate entry of the source.

For the molecule `CCCCCCCC/C=C\CCCCCCCC(=O)O[C@@H]1[C@H](OC(=O)CCCCCCC/C=C\CCCCCCCC)[C@@H](C[N+](C)(C)C)O[C@H]1n1ccc(=O)[nH]c1=O` [DOTAU, N-[5′-(2′,3′-dioleoyl)uridine]-N′,N′,N′-trimethylammonium], in data set [1], the “colloidal stability of the iron oxide nanoparticle suspension after sonication” value is on record as “did not give a precipitate; also recorded: stable colloïdal suspension”. As for `CCCCC[C@H](O)/C=C/[C@@H]1[C@H]2C/C(=C/CCCC(=O)O)O[C@H]2C[C@H]1O` [PGI2, prostacyclin], the “platelet aggregation induced by ADP” value in data set [2] (agonist ADP, 15 min incubation) was “totally inhibit”. Moreover, in data set [2] (agonist TRAP-6, 3 h incubation), the “platelet aggregation induced by TRAP-6” value is given as “totally inhibit”. As for “APOA1: Apolipoprotein-A1 (Sigma Aldrich)”, the “size distribution by number measured by DLS (d)” value in data set [3] came out at 5.01 nm.

These data come from patent publication US20180116972A1, “Lipid based nanocarrier compositions loaded with metal nanoparticles and therapeutic agent” (UNIVERSITE DE BORDEAUX, priority 2015, published 2018).
